# Measured values published in patent publication US4565814A, “Pyridazine derivatives having a psychotropic action and compositions” (priority 1983, dated 1986).
# Like-named read-outs stand apart in the source and are kept apart here.
# Experiments:
# [1] = tested on: CD1 (Charles River) female mice; assay: Despair behaviour (Porsolt forced-swim immobility), intraperitoneal; assay type: in vivo, mouse; details: Table 8, 1 hour before test, ++ significant (Student test)
# Protocol: The principle of this test is as follows: when a mouse is placed in a narrow vessel filled with water, it struggles and then, after 2 to 4 minutes, it becomes immobile and floats on its abdomen, with its back hunched and its back paws tucked under the body, and it only makes the few movements necessary to keep its head above the water. This is the so-called despair reaction. Certain psychotropic drugs, in particular antidepressants, lengthen the time for which the mouse struggles. The following protocol was selected: The products to be studied were administered intraperitoneally 1 hour before the test. For the test, the animals are placed in a narrow vessel (10×10×10 cm) filled with water to a height of 6 cm, the temperature being 24° C. plus or minus 2° C. The animals are left in the water for 6 minutes and the time for which the animal remains immobile between the 2nd and 6th minutes is measured. The activity of the substance is the greater, the shorter this time. Each substance was studied on a batch of 10 mice. The results are the average of at least two experiments.
# [2] = tested on: CD1 Charles River female mice with unilateral lesion of the striatum; assay: Rotational behaviour after unilateral 6-hydroxydopamine lesion of the striatum, intraperitoneal; assay type: in vivo, mouse; details: for Rotational behaviour, intraperitoneal administration (change of rotations vs control): Table 8, 1 hour after administration; for Rotational behaviour of mice (intraperitoneal administration): Table 9, decrease: minus sign printed at end of the dose line, * p < 0.01, Student test
# Protocol: CD1 Charles River female mice weighing from 20 to 24 g first undergo unilateral lesion of the striatum by the stereotaxic injection of 6-hydroxydopamine at a dose of 8 μg per animal. One week after this operation, the product is administered intraperitoneally to groups of 7 mice. The number of rotations is evaluated over 2 minutes, 1 hour after the administration of the product. Rotations on the same side as the lesion are counted as positive and those on the opposite side are counted as negative.
# [3] = tested on: reserpine-induced ptosis in CD1 (Charles River) female mice; assay: Antagonism of reserpine-induced ptosis, intraperitoneal; assay type: in vivo; details: Mus musculus, ip, i.p., reserpine 2 mg/kg i.v., read 1 hour after reserpine
# Protocol: ANTAGONISM OF RESERPINE-INDUCED PTOSIS
# This test, which is described by GOURET (Journal de pharmacologie Paris 1973, 4 (1), 105-128), was carried out on CD1 (Charles River) female mice weighing 20 g plus or minus 1 g. Reserpine causes ptosis 1 hour after its intravenous administration; certain antidepressants oppose this ptosis.
# The following protocol was selected:
# The substances to be studied were administered intraperitoneally. The reserpine is administered intravenously at the same time, at a dose of 2 mg/kg.
# mice = assay: in vivo; assay type: in vivo; details: i.p., mortality noted for 24 hours
# Protocol: (§1) The products to be studied were administered intraperitoneally in increasing doses to batches of 10 mice.
# (§2) The 50% lethal dose, that is to say the dose causing the […] of 50% of the animals studied, is determined from the results obtained for each of the products studied.
# in vivo = assay type: in vivo; details: mouse, in vivo, ip; Table 9; i.p.; mortality noted for 24 hours; read-out: Toxicity, intraperitoneal administration, LD50
# Protocol: as §1, §2
# [4] = Table 8, read-out: Reserpine-induced ptosis, intraperitoneal administration, ED50
# [5] = 2 mg/kg i.p., ++ significant (Student test)
# [6] = Table 9, read-out: Test for the antagonism of reserpine-induced ptosis, intraperitoneal administration, ED50
Structure (SMILES),"Despair behaviour, intraperitoneal administration (change of immobility time) ([1]; 10 mg/kg i.p.) [%]","Rotational behaviour, intraperitoneal administration (change of rotations vs control) ([2]; 3 mg/kg i.p., n.s.: not significant) [%]","ED50 [3, 4] [mg/kg]","Despair behaviour, intraperitoneal administration (change of immobility time) ([1]; 5 mg/kg i.p.) [%]","Rotational behaviour, intraperitoneal administration (change of rotations vs control) ([2]; 0.125 mg/kg i.p., ++ significant (Student test)) [%]","Rotational behaviour, intraperitoneal administration (change of rotations vs control) [2, 5] [%]",Rotational behaviour of mice (intraperitoneal administration) ([2]; 2 mg/kg i.p.) [%],"Toxicity, intraperitoneal administration, LD50 (mice; Table 8) [mg/kg]","Toxicity, intraperitoneal administration, LD50 (mice; Table 9) [mg/kg]","ED50 [3, 6] [mg/kg]","Rotational behaviour, intraperitoneal administration (change of rotations vs control) ([2]; 0.1 mg/kg i.p., ++ significant (Student test)) [%]",Rotational behaviour of mice (intraperitoneal administration) ([2]; 0.5 mg/kg i.p.) [%],LD50 at 24 h (in vivo) [mg/kg]
CN(C)CCCN1c2ccccc2CCc2ccccc21 [iminaprine],-38,-6,2.4,,,,,,,,,,
Cc1cc(-c2ccccc2)nnc1NCCN1CCOCC1 [Minaprine],,,5,-31,-53,-82,-82,63,63,5,,,
"Cl.Cl.N#Cc1cc(-c2ccccc2)nnc1NCCN1CCOCC1 [SR 95191, 3-(2-Morpholinoethylamino)-4-cyano-6-phenylpyridazine dihydrochloride]",,,3.9,-26,,-107,,,,,-60,,
N#Cc1cc(-c2ccsc2)nnc1NCCN1CCOCC1 [SR 95 274 A],,,,,,,-82,,,2.6,,-60,> 300
